Test results reported in PubChem BioAssay AID1996.
In brackets after ≈: the same amount, converted by molar mass.

details: buffer; pH 7.4; 200.0 µM

Row | Structure (SMILES) | solubility kinetic
1 | Cc1ccc(-c2nc(C#N)c(N3CCC(C)CC3)o2)cc1 | < 0.2 µg/mL
2 | Cc1cccc2[nH]c(CN(C)Cc3nc(CC4CC4)no3)nc12 | 45.9 µg/mL (≈ 147 µM)
3 | CCCc1ccc2oc(C(=O)N(C)Cc3nccs3)c(C)c2c1 | 14 µg/mL (≈ 42.6 µM)
4 | O=C(Nc1ccc(N2CCOCC2)cc1)c1nc2ccccc2s1 | < 0.2 µg/mL
5 | COCCNC(=O)Cn1cc(C=C2C(=O)NC(=O)NC2=O)c2ccccc21 | 6.3 µg/mL (≈ 17 µM)
6 | CN(CCOC(=O)/C=C/c1ccco1)Cc1ccccc1 | > 42.8 µg/mL
7 | COc1cc2[nH]c(=S)n(C3CC3)c(=O)c2cc1OC | 7.6 µg/mL (≈ 27.3 µM)
8 | COc1ccc(NC(=O)c2cc(C)no2)cc1 | > 34.8 µg/mL
9 | Cn1c(O)c(C=Nc2ccc(F)cc2)c(=O)[nH]c1=O | 11.9 µg/mL (≈ 45.2 µM)
10 | COCCNC(=O)CN1C(=O)c2cccc3cccc1c23 | > 42.6 µg/mL
11 | COc1ccccc1NC(=O)Nc1c(C)nn(C)c1C | > 41.1 µg/mL
12 | CCOC(=O)C1CCN(S(=O)(=O)c2c[nH]c(=O)[nH]c2=O)CC1 | > 49.7 µg/mL
13 | Cc1noc(C)c1C(=O)Nc1nc2ccc(F)cc2s1 | 22.2 µg/mL (≈ 76.2 µM)
14 | CCOC(=O)Nc1ccc2c(COC(=O)C(NS(=O)(=O)c3ccc(Cl)cc3)C(C)O)cc(=O)oc2c1 (stereo not given) | 20.5 µg/mL (≈ 38 µM)
15 | CC(Sc1nc2ccccc2[nH]1)C(=O)Nc1ccccc1F (stereo not given) | 43.9 µg/mL (≈ 139 µM)
16 | COc1ccccc1N1CCN(/N=C/c2ccccc2C(=O)O)CC1 | > 50.9 µg/mL
17 | Cl.c1ccc2c3c([nH]c2c1)CCNC3 | > 31.3 µg/mL
18 | Cc1ccc(C(=O)N(C)CC(=O)Nc2cccc(C)c2C)o1 | > 45.1 µg/mL
19 | CCOC(=O)CN1C(=N)N(c2nc(NC(C)C)nc(OC)n2)CC1=O | > 52.7 µg/mL
20 | O=S(=O)(NCc1nc(-c2ccccc2)no1)c1ccc(F)cc1 | 6.4 µg/mL (≈ 19.2 µM)

Row | Structure (SMILES) | solubility kinetic
21 | CN(C)CCNC(=O)Nc1ccc([N+](=O)[O-])cc1 | > 37.8 µg/mL
22 | Cc1cc(C)c(NC(=S)N(C)C)cc1C | > 33.4 µg/mL
23 | COc1ccc(NC(=O)CCC(=O)N2CCCC2)c([N+](=O)[O-])c1 | > 48.2 µg/mL
24 | Cc1ccc(-c2csc(NC(=O)c3ccccc3Cl)c2C(=O)O)cc1 | > 55.8 µg/mL
25 | Cc1ccc(N=C2NC(=O)CS2)cc1C | 32.7 µg/mL (≈ 148 µM)
26 | O=[N+]([O-])c1ccc(O)c2ncccc12 | > 28.5 µg/mL
27 | O=C1NCCCC1C(=O)N1CCCCC1 (stereo not given) | > 31.5 µg/mL
28 | COc1nc(N)nc(N)c1NS(=O)(=O)c1ccc(C)cc1 | > 46.4 µg/mL
29 | CCn1c(OC)nc2c1c(=O)n(C)c(=O)n2C | > 35.7 µg/mL
30 | COc1ccc(C(=O)NC2CCSc3ccccc32)cc1 (stereo not given) | 6.3 µg/mL (≈ 21 µM)
31 | O=c1cc([O-])n(C2CCCCCC2)c(=O)[nH]1.[NH4+] | 30 µg/mL
32 | COc1cc(S(=O)(=O)Nc2cccnc2)ccc1Cl | > 44.8 µg/mL
33 | O=C(NCC(=O)N1CCN(c2ccccc2O)CC1)c1cccs1 | > 51.8 µg/mL
34 | COc1ccc2[nH]cc(C(=O)CN3CCCC(C)(C)C3)c2c1 | > 45.1 µg/mL
35 | CCc1cc2cc(C)ccc2nc1SCC(=O)NC1CCCC1 | < 0.4 µg/mL
36 | CC1CCCCN1C(=S)NC(=O)c1cccs1 (stereo not given) | > 40.3 µg/mL
37 | Cc1cc(=O)[nH]c(Nc2ccccc2C)n1 | > 32.3 µg/mL
38 | CCC(=O)Nc1nc(-c2cc([N+](=O)[O-])cs2)cs1 | 1 µg/mL (≈ 3.53 µM)
39 | COc1ccc(S(=O)(=O)N2CCOc3ccccc32)cc1 | 17.6 µg/mL (≈ 57.6 µM)
40 | O=C(CCSCc1ccccc1F)NCCc1ccccc1 | 17.8 µg/mL (≈ 56.1 µM)

Row | Structure (SMILES) | solubility kinetic
41 | Cc1ccccc1Nc1nc(N)nc(COC(=O)c2c(C)noc2C)n1 | > 53.2 µg/mL
42 | Cc1cccc(C(=O)OCC(=O)NCc2ccc3c(c2)OCO3)c1C | 14.5 µg/mL (≈ 42.5 µM)
43 | Nc1nc2c(Cl)cc(Cl)cc2s1 | 7.4 µg/mL (≈ 33.8 µM)
44 | Cc1nc2c(ccc3c([N+](=O)[O-])cccc32)c(C)c1C | 0.8 µg/mL (≈ 3 µM)
45 | O=C(O)C1CCN(S(=O)(=O)c2cccc3cccnc23)CC1 | > 48.1 µg/mL
46 | COc1ccc(CCC(C)NCc2cc(OC)cc(OC)c2)cc1 (stereo not given) | 38.7 µg/mL (≈ 117 µM)
47 | Cc1onc(-c2ccccc2)c1CNC(=O)Nc1cccc(Cl)c1 | 1.8 µg/mL (≈ 5.27 µM)
48 | O=C(c1ccc(Cl)cc1Cl)N1CCN(c2ccccn2)CC1 | > 50.4 µg/mL
49 | O=C1/C(=C/c2cccnc2)CC/C1=C\c1cccnc1 | 17.1 µg/mL (≈ 65.2 µM)
50 | CC1CC(C)CN(C(=O)COC(=O)c2nccnc2N)C1 (stereo not given) | > 43.9 µg/mL
51 | O=C(CSc1nnc2ccccn12)NC(=O)c1ccccc1 | > 46.9 µg/mL
52 | O=C(O)c1ccc(/C=N/NC(=S)NCCN2CCOCC2)cc1 | > 50.5 µg/mL
53 | CC(=O)Nc1cccc(Oc2nc(-c3ccccn3)nc3ccccc23)c1 | 0.8 µg/mL (≈ 2.24 µM)
54 | O=C(Nc1c(-c2ccccc2)nc2ccccn12)c1ccccc1F | > 49.7 µg/mL
55 | Cc1ccc(C(=O)CCC(=O)Nc2ccccc2C)c(C)c1 | 1.3 µg/mL (≈ 4.4 µM)
56 | CCc1nnc(NC(=O)CN2CCN(S(C)(=O)=O)CC2)s1 | > 50 µg/mL
57 | O=S(=O)(NC1=NCCCCC1)c1cc(F)ccc1F | > 43.2 µg/mL
58 | O=C(CCc1ccccc1)Nc1cccnc1Cl | 35.1 µg/mL (≈ 135 µM)
59 | COc1ccc(CCNC(=O)COC(=O)c2cc(=O)[nH]c3ccccc23)cc1 | 8.9 µg/mL (≈ 23.4 µM)
60 | Cc1ccc(C2SCC(=O)N2c2ccccc2)cc1 (stereo not given) | > 40.4 µg/mL
